Source: US4009264A, “Complexes of polysaccharides or derivatives thereof with reduced glutathione and process for preparing said complexes” (Meito Sangyo Kabushiki Kaisha, priority 1975, dated 1977)
One block for each compound: values may come before it.

Tests used:
[1] = Auto-oxidation of other SH-containing compounds in the presence and absence of the complex (amperometric silver titration); format: physicochemical; conditions: 37° C.
Experimental: In these Figures, the axis of abscissa represents the incubating time in minutes, and the axis of ordinates, the SH redidual ratio (%) of the above compounds.
The above residual ratio is measured after dissolving the sample in a sodium phosphate buffer (0.1 m, pH 8.0) in the presence of copper sulfate (5 × 10^-^7 m), and incubating at 37° C. The SH content is measured by an amperometric silver titration.

[2] = literature report; cited from earlier work
[3] = Stability of the thiol group to auto-oxidation: residual ratio of the active SH group (residual activity); format: physicochemical; conditions: 40° C.
Experimental: The residual ratio of the active SH group, or simply called the residual activity, as used in this application is determined as follows:
The complex of this invention and other SH-containing compounds are incubated at a certain termperature in a sodium phosphate buffer (0.1 M, pH 8.0). Aliquotes are withdrawn at intervals and immediately the active SH group contents of the samples are determined. The maximum content obtained is made 100 (%), and the active SH group content of each of the samples is expressed in percentage based on this maximum content.

[4] = tested on: damage of liver induced by D-galactosamine hydrochloride; test: Prophylactic activity on damage of liver induced by D-galactosamine hydrochloride; format: in vivo, Wister female rats; conditions: administered beforehand; summary of Table 1
Experimental: The damage of liver was induced by administering D-galactosamine hydrochloride.
Wister female rats weighing 100 to 120 g (10 in a group) which had been fasted for 2 hours were used. Three groups were prepared. […] Still another group was administered only with 1 ml. of an isotonic sodium chloride solution. One hour after the administration, a solution obtained by dissolving 50 mg of D-glactosamine hydrochloride in 1 ml. of an isotonic sodium chloride solution and adjusting the pH of the solution to 7.0 with 0.1N sodium hydroxide was administered intraperitoneally.
After a lapse of 22 hours from the administration of D-galactosamine hydrochloride, blood was extracted from the abdominal aorta. GOT, GPT, bilirubin, and glucose in the plasma were measured. Furthermore, the liver was cut out, and its lipid and neutral fat were measured.

- SH residual ratio of cysteamine alone ([1]; 60 minutes, sodium phosphate buffer pH 8.0, copper sulfate 5 × 10^-7 M): zero
Compound: NCCS [cysteamine]

Compound: complex of dextran and insulin: literature complex of activated dextran and insulin (Acta Chem. Scand. 25, 1855-1859, 1971)
- activity relative to the free insulin [2]: 1/36

- SH residual ratio of penicillamine alone ([1]; 60 minutes, pH 8.0, copper sulfate 5 × 10^-7 M): about 15%
Compound: CC(C)(S)[C@@H](N)C(=O)O [penicillamine]

- residual ratio of the active SH group (residual activity of the reduced glutathione) ([3]; after 6 hours, sodium phosphate buffer 0.1 M pH 8.0, FeCl3 1.2 × 10^-5 M): about 40%
- residual ratio of the active SH group ([3]; after 8 hours, sodium phosphate buffer 0.1 M pH 8.0): about 20%
- SH residual ratio of reduced glutathione alone ([1]; 180 minutes, final concentration 1 × 10^-3 M, pH 8.0, copper sulfate 5 × 10^-7 M): about 20%
Compound: N[C@@H](CCC(=O)N[C@@H](CS)C(=O)NCC(=O)O)C(=O)O [reduced glutathione]
- inhibition of the D-galactosamine-induced increase (GOT, GPT, bilirubin, liver lipid, neutral fat) or decrease (glucose) [4]: inhibited
